Test results as given in patent publication US12448388B2, “PRMT5 inhibitors and uses thereof” (Gilead Sciences, Inc., priority 2023, dated 2025).
Where “and” joins values, the source holds several entries; their conditions need not be identical. Equal entries are not always repeated. Where two headings read alike, the source gives them in different places.

Tests used:
hERG ion channel = target: T1, hERG ion channel (Homo sapiens, UniProt Q12809); experiment: hERG assay (automated patch clamp, QPatch HT); type: cell-based; settings: HEK293 hERG, * = accurate hERG measurement may be limited by compound solubility
T1 construct: host or cells: HEK293
T1 sequence (Q12809 whole entry): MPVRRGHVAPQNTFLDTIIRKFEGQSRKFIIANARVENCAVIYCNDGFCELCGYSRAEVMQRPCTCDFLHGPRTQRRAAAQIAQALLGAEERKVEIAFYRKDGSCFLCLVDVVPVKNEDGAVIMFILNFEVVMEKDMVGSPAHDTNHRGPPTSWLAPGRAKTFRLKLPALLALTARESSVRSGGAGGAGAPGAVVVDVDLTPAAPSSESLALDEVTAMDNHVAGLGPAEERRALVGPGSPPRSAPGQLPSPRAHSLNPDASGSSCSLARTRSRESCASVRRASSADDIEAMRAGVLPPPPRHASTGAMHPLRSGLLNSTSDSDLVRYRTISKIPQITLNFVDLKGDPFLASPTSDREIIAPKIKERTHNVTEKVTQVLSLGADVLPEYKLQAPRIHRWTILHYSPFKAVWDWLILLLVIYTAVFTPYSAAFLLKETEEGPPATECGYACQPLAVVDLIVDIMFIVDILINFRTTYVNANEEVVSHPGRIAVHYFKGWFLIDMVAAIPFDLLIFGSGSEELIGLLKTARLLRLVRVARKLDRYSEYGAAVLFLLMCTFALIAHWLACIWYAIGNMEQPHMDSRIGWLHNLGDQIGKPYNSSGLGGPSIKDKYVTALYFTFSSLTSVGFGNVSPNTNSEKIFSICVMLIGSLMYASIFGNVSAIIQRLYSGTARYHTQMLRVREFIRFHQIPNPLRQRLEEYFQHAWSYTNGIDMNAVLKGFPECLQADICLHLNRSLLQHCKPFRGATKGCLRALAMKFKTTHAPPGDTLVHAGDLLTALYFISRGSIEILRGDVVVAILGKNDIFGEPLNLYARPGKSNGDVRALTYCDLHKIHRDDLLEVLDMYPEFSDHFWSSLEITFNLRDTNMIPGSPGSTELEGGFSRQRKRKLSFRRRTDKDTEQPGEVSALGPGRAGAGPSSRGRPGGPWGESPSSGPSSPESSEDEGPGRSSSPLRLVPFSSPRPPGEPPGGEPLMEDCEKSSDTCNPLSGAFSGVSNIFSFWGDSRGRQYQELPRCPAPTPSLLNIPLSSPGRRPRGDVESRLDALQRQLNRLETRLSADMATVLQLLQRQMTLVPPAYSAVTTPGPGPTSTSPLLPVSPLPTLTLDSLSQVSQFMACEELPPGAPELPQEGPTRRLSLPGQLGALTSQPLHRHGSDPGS
Protocol: Cell lines and cell culture: The HEK293 cell line stably expressing the hERG ion channel was provided from Charles River laboratories. Cells were maintained in tissue culture incubators per Charles River Laboratories SOP. Stocks were maintained in cryogenic storage. HEK293 cells were stably transfected with hERG cDNA.
Automated Patch Clamp Procedures: In preparation for a recording session, intracellular solution was loaded into the intracellular compartments of the QPlate and cell suspension was pipetted into the extracellular compartments. After establishment of a whole-cell configuration, membrane currents were recorded using up to 48 parallel patch clamp amplifiers in the QPatch HT® system. The current records were sampled at 2000 Hz and low-pass Bessel filtered at 400 Hz.
Valid whole-cell recordings met the following criteria: • 1. Membrane resistance ≥200 MΩ. • 2. Leak current 25% channel current or subtracted.
hERG Test Procedures: Onset and block of hERG current was measured using a stimulus voltage pattern consisting of a 500 ms prepulse to −40 mV (leakage subtraction), a 2-second activating pulse to +40 mV followed by a 2-second test pulse to −40 mV. The pulse pattern was repeated continuously at 10 s intervals from a holding potential of −80 mV. Peak tail current was measured during the −40 mV test pulse. Leakage current was calculated from the current amplitude evoked by the −40 mV prepulse and subtracted from the total membrane current record.
Data Analysis: Data acquisition and analysis were performed using the QPatch Assay Software (Sophion Bioscience A/S, Denmark). Steady state was defined by the limiting constant rate of change with time (linear time dependence). The steady state before and after test article application were used to calculate the percentage of current inhibited at each concentration. Run down, a time-dependent reduction of current amplitude, may be compensated for in the QPatch Assay Software using standard system tools. Concentration-response data was fit to an equation of the following form: […]
Where [Test] is the concentration of test compound, IC50 is the concentration of the test compound producing half-maximal inhibition, N is the Hill coefficient and % Block is the percentage of current inhibited at each concentration of the test article. Nonlinear least squares fits will be solved with the Solver add-in for Excel 2000 or later (Microsoft, Redmond, WA).

[1] = Hepatocyte stability assay, dog; type: in vitro ADME; settings: Beagle Dog
Protocol: (§1) BioreclamationIVT (Baltimore, MD) provided the cryopreserved hepatocytes, hepatocyte thawing (HT) medium, and Krebs-Henseleit buffer (KHB) medium. The stock solution concentration was 1 M in DMSO and was then diluted further in acetonitrile/water (1:1 v/v). All other chemicals were purchased from Sigma-Aldrich (St. Louis, MO) or Thermo Fisher Scientific (Waltham, MA).
(§2) The quench solution used to stop reactions in the hepatocyte incubations was comprised of 100% (v/v) acetonitrile. Internal Standard/Quench (IS/Q) solution used to stop reactions with the positive control also contained 200 nM Labetalol.
(§3) Metabolic Stability in Cryopreserved Hepatocytes: Test compounds, or the positive control metabolic substrate, was incubated in suspensions of cryopreserved hepatocytes at a final concentration of 1 μM. Vials containing cryopreserved hepatocytes were removed from liquid nitrogen and immediately immersed in a 37° C. water bath. The vials were swirled gently until the contents had thawed. They were then immediately emptied into 48 mL of pre-warmed thawing medium in a 50 mL conical tube. Cells remaining in the vial were re-suspended with 1.0 mL of pre-warmed thawing medium and added to the conical tube. The tube was capped and then gently inverted several times to re-suspend the hepatocytes. The cell suspension was centrifuged at 500×g for 10 minutes at room temperature and the supernatant discarded. The cell pellet was loosened by gently swirling the centrifuge tube. Non-supplemented KHB medium was added to obtain the appropriate target cell density. The viabilities of all cell preparations were ≥85%, assessed by Trypan blue dye exclusion.
(§4) For incubations, aliquots of hepatocyte suspension (250 μL containing a cell concentration of 2×10^6 cells/mL) were added to 250 μL of 2 μM substrate (test compound or positive control) in supplemented KHB in duplicate wells in a 24-well plate. Final concentration in the incubations were 1×10^6 cells/mL and 1 μM substrate. A cell-free control incubation (KHB only) was also included. The incubations were carried out with gentle shaking in a 37° C. incubator under a humid atmosphere of 95% air/5% CO2 (v/v). Aliquots (100 μL) were removed after 0, 1, 3, and 6 hours and added to 200 μL quenching solution. The samples were then placed on a shaker for 10 min followed by centrifugation at 3000×g for 20 min. The supernatant was transferred to a new plate and diluted with 100 μL of water to reduce the organic content and then placed on a shaker for 10 mins. Samples were injected and analyzed with methods described below.
(§5) Liquid Chromatography: Quantification of positive control and test compound was performed by analyte/internal standard peak area ratios (PAR) measured on a Thermo Scientific™ Q Exactive™ Hybrid Quadrupole-Orbitrap Mass Spectrometer MS/MS with an electrospray interface operating in positive ion mode. The mass spectrometer was coupled to a Dionex Ultimate® 3000 HPLC system. Samples (10 μL aliquots) were injected with a Leap Technologies HTC PAL autosampler. For positive control, the column used was a Thermo Scientific™ Hypersil GOLD™ HPLC column ([…], 50×2.1 mm). Mobile phase A consisted of 95% (v/v) water, 5% (v/v) acetonitrile, and contained 0.1% (v/v) formic acid (FA). Mobile phase B consisted of 95% (v/v) acetonitrile, 5% (v/v) water, and contained 0.1% (v/v) FA. Elution was achieved, at a flow rate of 0.5 mL/min, by a series of linear gradients: initial condition was 5% B at 0 min, isocratic for 20 seconds; then linear gradient to 95% B over 90 seconds, followed by isocratic for 60 seconds at 95% B, and re-equilibrated to initial conditions over 70 seconds.
(§6) Metabolic stabilities of positive control and test compound were determined by measuring the rates of disappearance of the parent with time by determining the % of parent remaining at time t (Ct) {Obach 1997}.
(§7) Data (% of parent remaining) were plotted on a semi-log scale and fitted using an exponential fit: […]

[2] = Hepatocyte stability assay, cynomolgus monkey; type: in vitro ADME
Protocol: as §1, §2, §3, §4, §5, §6, §7

[3] = PK data (IV/PO) in Sprague-Dawley rat; type: in vivo; settings: for half-life / clearance / Vd / bioavailability: Sprague-Dawley, rat, in vivo; for half-life / clearance / Vd: iv; for clearance: read-out: Observed CL (converted); for Vd: read-out: Vss; for bioavailability: po

Row | Predicted Hepatocyte CL [1] | Predicted Hepatocyte CL [2] | half-life ([3]; 0.33 mg/kg, IV 0.33 mg/Kg) [h] | clearance ([3]; 0.33 mg/kg, IV 0.33 mg/Kg) [mL/min/kg] | Vd ([3]; 0.33 mg/kg, IV 0.33 mg/Kg) [L/kg] | SMILES | IC50 (hERG ion channel) [µM] | other results
1 | 3.5 mL/min/kg | 2.5 mL/min/kg | – | – | – | C[C@H]1CN(C(=O)c2cc3c(cc2F)nc(N)c2cncn23)[C@H]2c3ccc(C(F)(F)F)cc3C[C@H]2O1 (single isomer, unassigned) [Ff-81] | 27.7 | half-life ([3]; 1 mg/kg, IV 1 mg/Kg): 4.7 h; clearance ([3]; 1 mg/kg, IV 1 mg/Kg): 4 mL/min/kg; Vd ([3]; 1 mg/kg, IV 1 mg/Kg): 1.65 L/kg
2 | – | – | – | – | – | Nc1nc2cc(F)c(C(=O)N3CCO[C@@H]4Cc5cc(C(F)(F)F)ccc5[C@@H]43)cc2n2cncc12 (single isomer, unassigned) [Ff-82] | > 30 | –
3 | – | – | – | – | – | C[C@@H]1CN(C(=O)c2cc3c(cc2F)nc(N)c2cncn23)[C@H]2c3cc(F)c(OC(F)(F)F)cc3C[C@H]2O1 (single isomer, unassigned) [Ff-197] | 11.9 | –
4 | – | – | – | – | – | Nc1nc2cnc(C(=O)N3CC[C@H]4C[C@@H]3c3c(F)cc(C(F)(F)F)cc3O4)cc2n2cncc12 (single isomer, unassigned) [Ff-694] | 16.2 | –
5 | 10.2 mL/min/kg | 3 mL/min/kg | 4.6 | 7.33 | 2.45 | Nc1nc2cnc(C(=O)N3CCC[C@@H]4Oc5cc(C(F)(F)F)cc(F)c5[C@@H]43)cc2n2cncc12 (single isomer, unassigned) [Fg-53] | 9.95 | bioavailability ([3]; 1.66 mg/kg, PO 1.66 mg/Kg): 120%
6 | 12.5 mL/min/kg | 4.17 mL/min/kg | 6 | 3.5 | 1.73 | Nc1nc2cnc(C(=O)N3CCC[C@@H]4Oc5cc(OC(F)(F)F)cc(F)c5[C@@H]43)cc2n2cncc12 (single isomer, unassigned) [Fg-55] | 6.2 | bioavailability ([3]; 1.66 mg/kg, PO 1.66 mg/Kg): 99%
7 | 6.33 mL/min/kg and 11.2 mL/min/kg | 4.83 mL/min/kg and 4.67 mL/min/kg | 3.7 | – | – | Nc1nc2cc(F)c(C(=O)N3CCC[C@@H]4Oc5cc(C(F)(F)F)ccc5[C@@H]43)cc2n2cncc12 [Ff-104, (4-amino-7-fluoroimidazo[1,5-a]quinoxalin-8-yl)((4aS,9bS)-7-(trifluoromethyl)-3,4,4a,9b-tetrahydrobenzofuro[3,2-b]pyridin-1(2H)-yl)methanone] | 14.2 | T1/2 ([3]; IV 0.33 mg/Kg, 0.33 mg/kg): 3.77 h; % F ([3]; PO 1.66 mg/Kg, 1.66 mg/kg): 67% and 98%
8 | – | – | – | – | – | Nc1nc2cnc(C(=O)N3CCC[C@@H]4Oc5cc(C(F)(F)F)ccc5[C@@H]43)cc2n2cncc12 [Ff-110, (4-aminoimidazo[1,5-a]pyrido[3,4-e]pyrazin-8-yl)((4aS,9bS)-7-(trifluoromethyl)-3,4,4a,9b-tetrahydrobenzofuro[3,2-b]pyridin-1(2H)-yl)methanone] | 8.47 | –
9 | 12.3 mL/min/kg | 4.67 mL/min/kg | 5.9 | 2.5 | 1.29 | Nc1nc2ccc(C(=O)N3CCC[C@@H]4Oc5cc(C(F)(F)F)ccc5[C@@H]43)cc2n2cncc12 [Ff-111, (4-aminoimidazo[1,5-a]quinoxalin-8-yl)((4aS,9bS)-7-(trifluoromethyl)-3,4,4a,9b-tetrahydrobenzofuro[3,2-b]pyridin-1(2H)-yl)methanone] | 6.7 | –
10 | 12 mL/min/kg | 3.3 mL/min/kg | 5.3 | 8.83 | 3.2 | Cc1ncc2c(N)nc3cnc(C(=O)N4CCC[C@@H]5Oc6cc(OC(F)(F)F)ccc6[C@@H]54)cc3n12 [Ff-340, (4-amino-1-methylimidazo[1,5-a]pyrido[3,4-e]pyrazin-8-yl)((4aS,9bS)-7-(trifluoromethoxy)-3,4,4a,9b-tetrahydrobenzofuro[3,2-b]pyridin-1(2H)-yl)methanone] | – | –
11 | 12.3 mL/min/kg | 5.67 mL/min/kg | – | – | – | Nc1nc2cnc(C(=O)N3CCC[C@@H]4Oc5cc(OC(F)(F)F)ccc5[C@@H]43)cc2n2cncc12 [Ff-341, (4-aminoimidazo[1,5-a]pyrido[3,4-e]pyrazin-8-yl)((4aS,9bS)-7-(trifluoromethoxy)-3,4,4a,9b-tetrahydrobenzofuro[3,2-b]pyridin-1(2H)-yl)methanone] | – | half-life ([3]; 0.25 mg/kg, IV 0.25 mg/Kg): 4.6 h; clearance ([3]; 0.25 mg/kg, IV 0.25 mg/Kg): 3.5 mL/min/kg; Vd ([3]; 0.25 mg/kg, IV 0.25 mg/Kg): 1.45 L/kg; bioavailability ([3]; 1.25 mg/kg, PO 1.25 mg/Kg): 99%
12 | 15.3 mL/min/kg | 15.3 mL/min/kg | 3.1 | 8.17 | 1.72 | Cc1ncn2c1c(N)nc1cnc(C(=O)N3CCC[C@@H]4Oc5cc(C(F)(F)F)ccc5[C@@H]43)cc12 [Ff-499, (4-amino-3-methylimidazo[1,5-a]pyrido[3,4-e]pyrazin-8-yl)((4aS,9bS)-7-(trifluoromethyl)-3,4,4a,9b-tetrahydrobenzofuro[3,2-b]pyridin-1(2H)-yl)methanone] | 17.5 | –
